Laboratory results as given in US20100291236A1, “OSMIUM COMPOUNDS” (THE UNIVERSITY OF WARWICK, priority 2006, published 2010).
“And” between values parts separate entries of the source, which are not always exact repeats. Equal values may be shown once. Read-outs that look alike come from different tables or passages of the source.

Columns and labels:
[1] = test system: human lung A549 cancer cells; test: Cytotoxicity towards A549 cells, sulforhodamine B (SRB) assay; assay type: cell-based
Protocol: (§1) Experimental: Cytotoxicity Towards A2780 and A549 Human Cancer Cells. After plating, human ovarian A2780 cancer cells were treated with Os^II complexes on day 3, and human lung A549 cancer cells on day 2, at concentrations ranging from 2 μM to 50 μM. Solutions of the Os^II complexes were made up in 0.125% DMSO to assist dissolution. Cells were exposed to the complexes for 24 h, washed, supplied with fresh medium, allowed to grow for three doubling times (72 h), and then the protein content measured (proportional to cell survival) using the sulforhodamine B (SRB) assay.
(§2) Cancer Cell Cytotoxicity. After plating, human ovarian A2780 cancer cells were treated with OsII complexes on day 3, and human lung A549 cancer cells on day 2, at concentrations ranging from 0.1 μM to 100 μM. Solutions of the OsII complexes were made up in 0.125% DMSO to assist dissolution. Cells were exposed to the complexes for 24 h, washed, supplied with fresh medium, allowed to grow for three doubling times (72 h), and then the protein content measured (proportional to cell survival) using the sulforhodamine B (SRB) assay.10

[2] = Stability against formation of hydroxo-bridged dimers; assay type: physicochemical; conditions: for Formation of inert hydroxo-bridged dimers: micromolar concentrations; for Stability with no evidence of dimer formation: 50 μM, even after incubation at 310 K (24 h)
Description: Complexes containing O,O-chelated ligands are deactivated at micromolar concentrations by loss of the chelate and formation of inert hydroxo-bridged dimers.

[3] = Acidity (pKa / pKa*) of coordinated water, 1H NMR pH* titration
Description: pKa* calculations. […] The chemical shifts of the arene ring protons were plotted against pH*. The pH* titration curves were fitted to the Henderson-Hasselbalch equation, with the assumption that the observed chemical shifts are weighted averages according to the populations of the protonated and deprotonated species.

[4] = test system: human ovarian A2780 cancer cells; test: Cytotoxicity towards A2780 cells, sulforhodamine B (SRB) assay; assay type: cell-based
Protocol: as §1, §2

[5] = Stability in isotonic saline solutions; assay type: physicochemical; conditions: after 16 days of storage in the dark
Protocol: Stability tests on AFAP42, 64, 62, 05, 51 and 65 in isotonic saline solutions were also performed.

[6] = Effect of chloride concentration on aqua adduct formation; assay type: physicochemical; conditions: for % of aqua complex formed: 1 mM complex; for % aqua adduct: 1 mM complex in D2O, t = 10 min
Description: The effects of chloride levels on the distribution of AFAP42 (“prodrug”) and its aqua analogue (“active species”) were investigated. […] Results are summarised in table 6, showing how the hydrolysis of AFAP42 is suppressed in solutions with chloride concentrations similar to those found in blood plasma. At chloride concentrations typical of the cells cytoplasm, complex AFAP42 hydrolyses to some extent and at chloride concentrations typical of the nucleus (where the proposed target, DNA, can be found), the complex is present predominantly as the “active species” the aqua complex.
The effects of chloride concentrations typical of blood plasma (100 mM), cell cytoplasm (22.7 mM) and cell nucleus (4 mM) on the aqueous chemistry of 3 and 6 were investigated. ^1H NMR spectra of 3 or 6 (1 mM) were recorded within 10 min of sample preparation and after incubation at 310 K for 24 h.

[7] = as above; assay type: physicochemical; conditions: for % aqua adduct: 1 mM complex in D2O, t = 26 h
[8] = Hydrolysis (aquation) kinetics followed by 1H NMR; assay type: physicochemical; conditions: for Hydrolysis k/h^−1: 5% MeOD-d4/95% D2O, pH* 2
Protocol: Hydrolysis. […] The rate of hydrolysis was determined by fitting plots of concentrations (determined by ^1H NMR peak integrals) versus time to a pseudo first-order equation using ORIGIN version 5.0 (Microcal Software Ltd.).

[9] = test system: 9-ethyl adenine (9EtA); test: Reaction with nucleobase model 9-ethyl adenine, 1H NMR; assay type: binding; conditions: for % 9EtA nucleobase adduct: 1 mM complex, 1 mol equivalent 9EtA, D2O
Protocol: (§3) Since DNA is believed to be the main target for metal anticancer drugs, nucleobase binding reactions of compounds 3-6, with nucleobase models, 9-ethyl guanine (9EtG) and 9-ethyl adenine (9EtA), were investigated.
(§4) Solutions of 3-6 (1 mM) (present as an equilibrium between 3-6 and their respective aqua adducts as the major species) with 1 mol equivalent of 9EtG (Table 14) or 9EtA (Table 15) in D2O were prepared and ^1H NMR spectra were taken at different time intervals.
(§5) Interactions with Nucleobases. The reaction of compounds 8-12 with nucleobases typically involved addition of a solution containing 1 mol equiv of nucleobase in D2O, to an equilibrium solution of compounds 8-12 in D2O (>90% aqua). The pH* value of the sample was adjusted if necessary so as to remain close to 7.4 (physiological). ^1H NMR spectra of these solutions were recorded at 298 K after various time intervals.

[10] = test system: 9-ethyl guanine (9EtG); test: Reaction with nucleobase model 9-ethyl guanine, 1H NMR; assay type: binding; conditions: for % 9EtG nucleobase adduct: 1 mM complex, 1 mol equivalent 9EtG, D2O
Protocol: as §3, §4, §5

[11] = test system: human ovarian A2780 cancer cells; conditions: Peacock et al, J. Am. Chem. Soc. 2006; said to be erroneous; cited from earlier work
[12] = Table 7, 24 h exposure, 72 h growth, 2-50 μM, read-out: IC50/μM A549
[13] = Table 7, 24 h exposure, 72 h growth, 2-50 μM, read-out: IC50/μM A2780
[14] = Table 8, compounds 1-6, read-out: A549 IC50
[15] = Table 8, compounds 1-6, read-out: A2780 IC50

CC(C)(N)C(=O)[O][Os][Cl].Cc1ccc(C(C)C)cc1 [AFAP60]
IC50 [1, 12]: > 100 µM | Formation of inert hydroxo-bridged dimers [2]: form in small amounts | pKa of water coordinated on hydrolysis (aqua adduct of complex) [3]: 7.08 | IC50 [4, 13]: > 100 µM

[(η^6-p-cym)Os(pico)Cl] [AFAP42]
Stability of isotonic saline solutions [5]: stable | IC50 [1, 12]: 17 µM | Stability with no evidence of dimer formation [2]: 100% | pKa of water coordinated on hydrolysis (aqua adduct of complex) [3]: 6.62 | % of aqua complex formed ([6]; 4 mM [Cl], T = 0): 56.1% Aqua | % of aqua complex formed ([6]; 4 mM [Cl], T = 24 h (310 K)): 65.5% Aqua | % of aqua complex formed ([6]; 22.7 mM [Cl], T = 0): 29.8% Aqua | % of aqua complex formed ([6]; 100 mM [Cl], T = 0): 12% Aqua | % of aqua complex formed ([6]; 100 mM [Cl], T = 24 h (310 K)): 12.9% Aqua | IC50 [4, 13]: 4.5 µM | % of aqua complex formed ([7]; 4 mM [Cl], 50 μM complex, T = 0): 73.5% Aqua | % of aqua complex formed ([7]; 4 mM [Cl], 50 μM complex, T = 24 h (310 K)): 72.1% Aqua | % of aqua complex formed ([7]; 22.7 mM [Cl], 50 μM complex, T = 0): 44.8% Aqua | % of aqua complex formed ([7]; 22.7 mM [Cl], 50 μM complex, T = 24 h (310 K)): 45.2% Aqua | % of aqua complex formed ([7]; 22.7 mM [Cl], 1 mM complex, T = 24 h (310 K)): 30.5% Aqua | % of aqua complex formed ([7]; 100 mM [Cl], 50 μM complex, T = 0): 0% Aqua | % of aqua complex formed ([7]; 100 mM [Cl], 50 μM complex, T = 24 h (310 K)): 0% Aqua

Cc1cccc(C(=O)[O][Os][Cl])n1.c1ccc(-c2ccccc2)cc1 [Compound 3, [(η^6-bip)Os(6-Me-pico)Cl]]
IC50 [1, 14]: > 50 µM | pKa* of the aqua adduct [3]: 6.34 | % aqua adduct ([6]; 4 mM NaCl): 50% | % aqua adduct ([6]; 22.7 mM NaCl): 60% | % aqua adduct ([6]; 100 mM NaCl): 35% | IC50 [4, 15]: > 50 µM | Hydrolysis k/h^−1 ([8]; 288 K): 0.219 ± 0.005 h⁻¹ | Hydrolysis k/h^−1 ([8]; 298 K): 0.676 ± 0.039 h⁻¹ | % 9EtA nucleobase adduct ([9]; t = 10): 0% | % 9EtA nucleobase adduct ([9]; t = 24 h): 9% | % 9EtA nucleobase adduct ([9]; t = 72 h): 9% | binding to 9EtA (nucleobase adduct formation) ([9]; time not given): 9% | % 9EtG nucleobase adduct ([10]; t = 10): 0% | % 9EtG nucleobase adduct ([10]; t = 24 h): 30% | % 9EtG nucleobase adduct ([10]; t = 72 h): 30% | binding to 9EtG (nucleobase adduct formation) ([10]; time not given): 30% | % aqua adduct ([7]; 4 mM NaCl): 70% | % aqua adduct ([7]; 22.7 mM NaCl): 49% | % aqua adduct ([7]; 100 mM NaCl): 27%

NCCN.[Cl][Os+].c1ccc(-c2ccccc2)cc1.c1ccc([B-](c2ccccc2)(c2ccccc2)c2ccccc2)cc1 [(III)]
Activity toward A2780 cells as previously reported [11]: inactive

Cc1ccc(C(C)C)cc1.NCC(=O)[O][Os][Cl] [AFAP43]
IC50 [1, 12]: > 100 µM | Formation of inert hydroxo-bridged dimers [2]: form in small amounts | pKa of water coordinated on hydrolysis (aqua adduct of complex) [3]: 7.17 | IC50 [4, 13]: > 100 µM

F[P-](F)(F)(F)(F)F.NCCN.[Cl][Os+].c1ccc(-c2ccccc2)cc1 [AFAP05, [(η^6-bip)Os(en)Cl]PF6]
Stability of isotonic saline solutions [5]: stable | IC50 [1, 12]: 10 µM | IC50 [4, 13]: 7 µM

Cc1ccnc(C(=O)[O][Os][Cl])c1.c1ccc(-c2ccccc2)cc1 [Compound 6, [(η^6-bip)Os(4-Me-pico)Cl]]
IC50 [1, 14]: 10 to 50 µM | pKa* of the aqua adduct [3]: 6.42 | % aqua adduct ([6]; 4 mM NaCl): 82% | % aqua adduct ([6]; 22.7 mM NaCl): 53% | % aqua adduct ([6]; 100 mM NaCl): 10% | Activity in A2780 cancer cell line [4]: toxic | IC50 [4, 15]: 4.4 µM | Aquation k/h^−1 ([8]; 278 K): 0.17 h⁻¹ | Aquation k/h^−1 ([8]; 285 K): 0.44 h⁻¹ | Hydrolysis k/h^−1 ([8]; 288 K): 0.710 ± 0.012 h⁻¹ and 0.71 h⁻¹ | Hydrolysis k/h^−1 ([8]; 298 K): 2.32 ± 0.08 h⁻¹ and 2.32 h⁻¹ | Ea of aquation ([8]; from rates at 278-298 K): 90.58 kJ/mol | ΔH^‡ of aquation ([8]; from rates at 278-298 K): 87.7 kJ/mol | ΔS^‡ of aquation ([8]; from rates at 278-298 K): −55.56 J K^−1 mol^−1 | % 9EtA nucleobase adduct ([9]; t = 10): 0% | % 9EtA nucleobase adduct ([9]; t = 24 h): 60% | % 9EtA nucleobase adduct ([9]; t = 72 h): 60% | % 9EtG nucleobase adduct ([10]; t = 10): 0% | % 9EtG nucleobase adduct ([10]; t = 24 h): 80% | % 9EtG nucleobase adduct ([10]; t = 72 h): 85% | % aqua adduct ([7]; 4 mM NaCl): 81% | % aqua adduct ([7]; 22.7 mM NaCl): 53% | % aqua adduct ([7]; 100 mM NaCl): 20%

Cc1ccc(C(C)C)cc1.NCCC(=O)[O][Os][Cl] [AFAP49]
IC50 [1, 12]: > 100 µM | Formation of inert hydroxo-bridged dimers [2]: form in small amounts | pKa of water coordinated on hydrolysis (aqua adduct of complex) [3]: 7.43 | IC50 [4, 13]: > 100 µM

[(η^6-bip)Os(pico)Cl] [AFAP64]
Stability of isotonic saline solutions [5]: stable | IC50 [1, 12]: 8 µM | pKa of water coordinated on hydrolysis (aqua adduct of complex) [3]: 6.30 | IC50 [4, 13]: 4.2 µM

CC(N)C(=O)[O][Os][Cl].Cc1ccc(C(C)C)cc1 [AFAP44]
IC50 [1, 12]: > 100 µM | Formation of inert hydroxo-bridged dimers [2]: form in small amounts | pKa of water coordinated on hydrolysis (aqua adduct of complex) [3]: 7.05 | IC50 [4, 13]: > 100 µM

[(η^6-p-cym)Os(quin)Cl] [AFAP62]
Stability of isotonic saline solutions [5]: stable | IC50 [1, 12]: 60 µM | Stability with no evidence of dimer formation [2]: 100% | pKa of water coordinated on hydrolysis (aqua adduct of complex) [3]: 7.52 | IC50 [4, 13]: 15 µM and 15.2 µM
